Laboratory results from PMC11862924, “Phenylpyrazoles as Inhibitors of the m^6A RNA-Binding Protein YTHDF2” (JACS Au, 2025).

Tests used:
JAR = assay: CCK-8 proliferation assay, JAR; format: cell-based; conditions: Homo sapiens; CCK-8 kit assay, triplicates, 72 h; read-out: Anti-proliferation activity against cancer cells (IC50), JAR
Description: (§1) The JAR, K562, HCT116, and MOLM13 cells were seeded in 96-well plates (3000 cells/well). After being cultured overnight, compounds were added together with the DMSO treatment (0.1%) as a control. After 72 h, CCK-8 solution (Vazyme, A311) was added, and the cells were incubated at 37 °C for 4 h. The absorbance was measured at 450 nm using a plate reader (TECAN Spark).

[1] = MTT cytotoxicity assay, HCT116; format: cell-based; conditions: human, HCT116 cells, triplicates, read-out: Cytotoxicity against cancer cells (IC50), HCT116
Description: (§2) JAR, K562, and HCT116 cells were seeded in 96-well plates (3500 cells/well) and incubated for 8 h. The medium with different concentrations of compounds (100, 33.3, 11.1, 3.7, 1.2, and 0.4 μM) was added to the 96-well plates. Data were normalized to the medium with 0.1% DMSO. After incubation for 72 h, MTT solution (5 mg/mL, 20 μL) was added per well in a dark environment and incubated for 4 h. After the medium was discarded, DMSO (150 μL) was added per well, and the absorbance was measured at 492 nm by a plate reader (TECAN Spark).

[2] = MTT cytotoxicity assay, K562; format: cell-based; conditions: human, K562 cells, triplicates, read-out: Cytotoxicity against cancer cells (IC50), K562
Description: as §2

[3] = MTT cytotoxicity assay, JAR; format: cell-based; conditions: human, JAR cells, triplicates, read-out: Cytotoxicity against cancer cells (IC50), JAR
Description: as §2

HCT116 = assay: CCK-8 proliferation assay, HCT116; format: cell-based; conditions: Homo sapiens, HCT-116; CCK-8 kit assay, triplicates, 72 h; read-out: Anti-proliferation activity against cancer cells (IC50), HCT116
Description: as §1

[4] = biological target: T1, YTHDF2 (residues 383–553) (Homo sapiens, UniProt Q9Y5A9); assay: Fluorescence polarization (FP) assay, YTHDF2–m6A RNA interaction; format: binding; conditions: 100 μM compound; YTHDF2 (residues 383–553, 20 nM), FAM-labeled m6A RNA probe 5 nM; average ± SD
T1 construct: A YTHDF2 YTH domain construct (residues 383–553) was subcloned to a pOPIN plasmid; made in house; host or cells: Escherichia coli BL21(DE3)
T1 sequence (Q9Y5A9 383-553): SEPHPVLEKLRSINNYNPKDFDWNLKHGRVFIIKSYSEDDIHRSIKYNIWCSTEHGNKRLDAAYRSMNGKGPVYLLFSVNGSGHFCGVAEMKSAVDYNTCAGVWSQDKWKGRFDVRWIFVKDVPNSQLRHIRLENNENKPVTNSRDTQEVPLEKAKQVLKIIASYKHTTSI
Description: The FP assay was performed in 384-well black plates (Corning no. 4514) with a total reaction volume of 15 μL. The final concentrations of protein (YTHDF2) and RNA were […], respectively, in a buffer containing 20 mM HEPES/KOH pH 7.5, 50 mM NaCl, 0.005% Tween 20, and 1 mM GSH (DTT). Compounds were incubated with protein, added FAM-m^6A RNA probe ([…](m6)ACUGUG) (purchased from IDT), and incubated at 4 °C for 30 min. The fluorescence polarization was measured using a plate reader (TECAN Spark) under an excitation wavelength of 485 nm and an emission wavelength of 535 nm with a bandwidth of 20 nm. […] The data were determined using GraphPad Prism 9.

K562 = assay: CCK-8 proliferation assay, K562; format: cell-based; conditions: Homo sapiens, CCK-8 kit assay, triplicates, 72 h, read-out: Anti-proliferation activity against cancer cells (IC50), K562
Description: as §1

YTHDF2 = biological target: T2, YTHDF2 (Homo sapiens, UniProt Q9Y5A9); assay: Electrophoretic mobility shift assay (EMSA); format: binding; conditions: 100 μM compound; 250 nM YTHDF2, FAM-labeled m6A RNA
T2 construct: A YTHDF2 YTH domain construct (residues 383–553) was subcloned to a pOPIN plasmid; made in house; host or cells: Escherichia coli BL21(DE3)
T2 sequence (Q9Y5A9 383-553): T1 sequence (Q9Y5A9 383-553)
Description: Compounds with different concentrations (3.1–100 μM) were incubated with 250 nM YTH-domain and 20 nM FAM-17mer-RNA in a buffer containing 20 mM HEPES, pH 8.2, 50 mM NaCl, 0.05% Triton X-100, and 5% v/v glycerol for 20 min at 4 °C. […] Gel imaging was performed in ChemiDoc MP (Bio-Rad), and Cy2/Alexa488 fluorescence was detected with a 1-min exposure time. Quantification of the gel image was performed by ImageJ.

YTHDF2 YTH domain = biological target: T3, YTHDF2 YTH domain (Homo sapiens, UniProt Q9Y5A9); assay: AlphaScreen assay
T3 sequence (Q9Y5A9 383-553): T1 sequence (Q9Y5A9 383-553)
Description: Initially, the YTHDF2 YTH domain at different concentrations (0–2500 nM) was incubated with varied concentrations of RNA probes (5’-Bi-CGAm6ACUGUC–3′, IDT company) (5, 25, 50, and 100 nM) in 25 mM Hepes (pH 7.5), 100 mM NaCl, and 0.1% BSA to probe the optimal ratio between protein and RNA before the detection signal reached saturation. The AlphaScreen Histidine Detection Kit (Nickel Chelate) (PerkinElmer) 6760619 M and white 384-well Optiplates (PerkinElmer) were used. Anti-His receptor beads (PerkinElmer) (final concentration: 20 μg/mL) and streptavidin donor beads (final concentration: 20 μg/mL) were first added. The reaction mixture was then incubated at room temperature in a dark environment for 1 h to reach equilibrium. The optical signal was detected using a Tecan plate reader.
The inhibitory activities of the phenylpyrazoles (at 100 µM) against YTHDF2 binders
in the amplified luminescent proximity homogeneous assay (AlphaScreen).
phenylpyrazoles featuring a 2 -hydroxybenzoyl moiety R1 (blue) and a 4 -carboxyphenyl moiety
represent average values ± s.d.

| SMILES | IC50 (JAR) [µM] | IC50 at 72 h [1] [µM] | IC50 at 72 h [2] [µM] | IC50 at 72 h [3] [µM] | IC50 (HCT116) [µM] | inhibition at 100 µM [4] [%] | IC50 (K562) [µM] | inhibition of the YTHDF2–m6A RNA interaction in EMSA at 100 μM (in words) (YTHDF2) | inhibition at 100 μM in AlphaScreen (YTHDF2 YTH domain; 100 μM compound) [%] | inhibitory IC50 in AlphaScreen (in words) (YTHDF2 YTH domain; Figures S3 and S4) |
| --- | --- | --- | --- | --- | --- | --- | --- | --- | --- | --- |
| CCc1ccc(O)c(C(=O)c2cnn(-c3ccc(C(=O)O)cc3)c2)c1 [CK-65] | 45.6 ± 3.9 | > 50 | > 50 | > 50 | > 50 | 35.4 ± 6.5 | 43.9 ± 12 | – | – | – |
| O=C(c1cnn(-c2ccccc2C(=O)O)c1)c1ccccc1O [CK-25] | > 50 | > 50 | 44.3 ± 13.1 | > 50 | > 50 | 22.1 ± 3.3 | > 50 | – | – | – |
| NS(=O)(=O)c1ccc(-n2cc(C(=O)c3ccccc3O)cn2)cc1 [CK-49] | > 50 | 29 ± 11.4 | 20.1 ± 12.3 | 34.6 ± 5.9 | > 50 | 1.7 ± 6.5 | > 50 | – | – | – |
| COc1ccc(-n2cc(C(=O)c3ccccc3O)cn2)cc1 [CK-40] | > 50 | 25.5 ± 1.8 | 33.2 ± 5.8 | 44.6 ± 12.3 | > 50 | -4.8 ± 3.2 | 39.2 ± 6.1 | – | – | – |
| O=C(O)c1ccc(-n2cc(C(=O)c3cc(F)ccc3O)cn2)cc1 [CK-56] | > 50 | 19.3 ± 2.5 | 23.9 ± 7.5 | 41.2 ± 14.1 | > 50 | 37.4 ± 3.9 | > 50 | potent inhibition | – | – |
| O=C(c1cnn(-c2ccc(OC(F)(F)F)cc2)c1)c1ccccc1O [CK-39] | 31.2 ± 3.5 | 26.4 ± 10.3 | 19.8 ± 14.3 | 46.2 ± 20.8 | 38.9 ± 12.1 | 6.9 ± 3.3 | 25.6 ± 2.3 | – | – | – |
| Cc1ccccc1-n1cc(C(=O)c2ccccc2O)cn1 [CK-45] | 42.8 ± 1.2 | 26 ± 16.8 | 21.9 ± 7.6 | 43.2 ± 15.5 | > 50 | 22.1 ± 6.6 | 33.1 ± 5.7 | – | – | – |
| COc1ccc(O)c(C(=O)c2cnn(-c3ccc(C(=O)O)cc3)c2)c1 [CK-66] | 47.3 ± 6.3 | > 50 | > 50 | > 50 | 47.2 ± 8.7 | 63.2 ± 6.9 | 38.8 ± 3.7 | – | > 80 | low double-digit micromolar |
| O=C(O)c1ccc(-n2cc(C(=O)c3cc(F)cc(F)c3O)cn2)cc1 [CK-86] | > 50 | > 50 | > 50 | > 50 | > 50 | 54.6 ± 8.4 | > 50 | – | – | – |
| O=C(O)c1ccc(-n2cc(C(=O)c3cc(Br)ccc3O)cn2)cc1 [CK-60] | > 50 | 12.5 ± 6.4 | 16.4 ± 8.2 | 37.1 ± 11.4 | > 50 | 63.6 ± 10.8 | > 50 | – | – | – |
